Our source for the T/C values is PubChem BioAssay AID326 (DTP/NCI, 2004).

Values joined by “and” are separate entries in the source; they are usually repeats but may differ in a detail not shown here. Equal values may be shown once. Toxic doses and inconclusive results are not listed.

In this assay the test system is CD2F1 mice, P388/DHAQ leukemia ip, median survival T/C. Put plainly: NCI In Vivo Anticancer Drug Screen. Data for tumor model P388 Leukemia resistant to Dihydroxy Anthracenedione; NSC 299195 (intraperitoneal) in CD2F1 (CDF1) mice. As to conditions: endpoint: median survival time, higher = longer survival. The procedure:
The antitumor activity of compounds was measured in mice bearing transplantable tumors. Survival or tumor size were measured and the results are expressed as the measurement made in the treated group (T) divided by the measurement made in the vehicle treated control group (C). The tumor model used in this assay is P388 Leukemia resistant to Dihydroxy Anthracenedione; NSC 299195 (intraperitoneal) in CD2F1 (CDF1) mice

Where [1] appears, read: dose: 64.8 mg/kg/injection, schedule: Q04DX003 (ip), vehicle: saline.
Where [2] appears, read: dose: 108.0 mg/kg/injection, schedule: Q04DX003 (ip), vehicle: saline.
Where [3] appears, read: dose: 4.32 mg/kg/injection, schedule: Q04DX003 (ip), vehicle: saline.

Take `Cc1c2ccncc2c(C)c2c1[nH]c1ccccc12`: the T/C is 101 % of control and 107 % of control (dose: 13.0 mg/kg/injection, schedule: Q04DX003 (ip), vehicle: saline with Tween-80); 97 % of control (dose: 25.9 mg/kg/injection, schedule: Q04DX002 (ip), vehicle: saline with Tween-80); 111 % of control (dose: 32.4 mg/kg/injection, schedule: Q04DX002 (ip), vehicle: Klucel (hydroxypropylcellulose) (HPC)); 105 % of control (dose: 43.2 mg/kg/injection, schedule: Q04DX002 (ip), vehicle: saline with Tween-80); 100 % of control (dose: 54.0 mg/kg/injection, schedule: Q04DX002 (ip), vehicle: Klucel (hydroxypropylcellulose) (HPC)); 116 % of control and 223 % of control and 98 % of control (dose: 60.0 mg/kg/injection, schedule: Q04DX003 (ip), vehicle: saline with Tween-80). Moreover, the T/C is, setting by setting: (dose: 72.0 mg/kg/injection, schedule: Q04DX002 (ip), vehicle: saline with Tween-80) 112 % of control; (dose: 90.0 mg/kg/injection, schedule: Q04DX002 (ip), vehicle: Klucel (hydroxypropylcellulose) (HPC)) 88 % of control; (dose: 120.0 mg/kg/injection, schedule: Q04DX002 (ip), vehicle: saline with Tween-80) 114 % of control; (dose: 150.0 mg/kg/injection, schedule: Q04DX002 (ip), vehicle: Klucel (hydroxypropylcellulose) (HPC)) 83 % of control.

On to `CO[C@@]12[C@H](COC(N)=O)C3=C(C(=O)C(C)=C(N)C3=O)N1C[C@@H]1N[C@@H]12`, for which the T/C is 95 % of control (dose: 1.08 mg/kg/injection, schedule: Q04DX002 (ip), vehicle: saline); 166 % of control (dose: 1.62 mg/kg/injection, schedule: Q04DX003 (ip), vehicle: saline); 108 % of control (dose: 1.8 mg/kg/injection, schedule: Q04DX002 (ip), vehicle: saline); 172 % of control (dose: 2.7 mg/kg/injection, schedule: Q04DX003 (ip), vehicle: saline); 103 % of control (dose: 3.0 mg/kg/injection, schedule: Q04DX002 (ip), vehicle: saline); 168 % of control (dose: 4.5 mg/kg/injection, schedule: Q04DX003 (ip), vehicle: saline). Further, the T/C runs as follows: (dose: 5.0 mg/kg/injection, schedule: Q04DX002 (ip), vehicle: saline) 117 % of control; (dose: 7.5 mg/kg/injection, schedule: Q04DX003 (ip), vehicle: saline) 108 % of control.

Take `O=P1(N(CCCl)CCCl)NCCCO1` (stereo not drawn): the T/C (dose: 32.4 mg/kg/injection, schedule: Q04DX002 (ip), vehicle: saline) was 189 % of control; the T/C (dose: 38.9 mg/kg/injection, schedule: Q04DX003 (ip), vehicle: saline) is 224 % of control; the T/C (dose: 43.2 mg/kg/injection, schedule: Q04DX002 (ip), vehicle: saline) is 203 % of control; the T/C (dose: 54.0 mg/kg/injection, schedule: Q04DX002 (ip), vehicle: saline) was 255 % of control; the T/C under setting [1] was 353 % of control; the T/C (dose: 72.0 mg/kg/injection, schedule: Q04DX002 (ip), vehicle: saline) is 201 % of control. Further, the T/C was 336 % of control (dose: 90.0 mg/kg/injection, schedule: Q04DX002 (ip), vehicle: saline); 463 % of control under setting [2]; 223 % of control (dose: 120.0 mg/kg/injection, schedule: Q04DX002 (ip), vehicle: saline); 200 % of control (dose: 150.0 mg/kg/injection, schedule: Q04DX002 (ip), vehicle: saline); 380 % of control (dose: 200.0 mg/kg/injection, schedule: Q04DX002 (ip), vehicle: saline).

In the case of `COc1cccc2c1C(=O)c1c(O)c3c(c(O)c1C2=O)C[C@@](O)(C(=O)CO)C[C@@H]3OC1CC(N)C(O)C(C)O1` (stereo partly drawn), the T/C by setting is: (dose: 0.97 mg/kg/injection, schedule: Q04DX002 (ip), vehicle: saline) 118 % of control; (dose: 1.3 mg/kg/injection, schedule: Q04DX002 (ip), vehicle: saline) 115 % of control and 120 % of control; (dose: 2.16 mg/kg/injection, schedule: Q04DX002 (ip), vehicle: saline) 120 % of control; (dose: 2.7 mg/kg/injection, schedule: Q04DX002 (ip), vehicle: saline) 119 % of control; (dose: 3.6 mg/kg/injection, schedule: Q04DX002 (ip), vehicle: saline) 123 % of control; (dose: 6.0 mg/kg/injection, schedule: Q04DX002 (ip), vehicle: saline) 121 % of control. The T/C (dose: 10.0 mg/kg/injection, schedule: Q04DX002 (ip), vehicle: saline) is 102 % of control and 120 % of control.

In the case of `NCCCN=c1ccc2c3c1c(O)c1c(O)ccc(=O)c1c3[nH]n2CCNCCO`, the T/C was 124 % of control (dose: 9.72 mg/kg/injection, schedule: Q04DX002 (ip), vehicle: water); 97 % of control (dose: 27.0 mg/kg/injection, schedule: Q04DX002 (ip), vehicle: water); 97 % of control (dose: 45.0 mg/kg/injection, schedule: Q04DX002 (ip), vehicle: water).

Turning to `CC(=O)[C@]1(O)Cc2c(O)c3c(c(O)c2[C@@H](OC2CC(N)C(O)C(C)O2)C1)C(=O)c1c(O)cccc1C3=O` (stereo partly drawn), the T/C was 113 % of control (dose: 0.32 mg/kg/injection, schedule: Q04DX003 (ip), vehicle: saline); 111 % of control (dose: 0.54 mg/kg/injection, schedule: Q04DX003 (ip), vehicle: saline); 110 % of control (dose: 1.5 mg/kg/injection, schedule: Q04DX003 (ip), vehicle: saline); 96 % of control (dose: 2.0 mg/kg/injection, schedule: Q04DX003 (ip), vehicle: saline); 95 % of control (dose: 2.5 mg/kg/injection, schedule: Q04DX003 (ip), vehicle: saline).

As to `COc1cc(NS(C)(=O)=O)ccc1Nc1c2ccccc2nc2ccccc12`, the T/C reads like this: (dose: 2.59 mg/kg/injection, schedule: Q04DX002 (ip), vehicle: other) 108 % of control and 114 % of control (2×); (dose: 2.59 mg/kg/injection, schedule: Q04DX003 (ip), vehicle: saline) 107 % of control; under setting [3], 117 % of control.

Regarding `O=NN(CCCl)C(=O)NC1CCCCC1`, the T/C (dose: 7.2 mg/kg/injection, schedule: Q04DX003 (ip), vehicle: saline + alcohol) is 192 % of control; the T/C (dose: 12.0 mg/kg/injection, schedule: Q04DX003 (ip), vehicle: saline + alcohol) was 337 % of control; the T/C (dose: 20.0 mg/kg/injection, schedule: Q04DX003 (ip), vehicle: saline + alcohol) is 542 % of control; the T/C (dose: 33.3 mg/kg/injection, schedule: Q04DX003 (ip), vehicle: saline + alcohol) is 202 % of control.

For the compound `O=C(O)CCCc1ccc(N(CCCl)CCCl)cc1`, the T/C by setting is: (dose: 2.59 mg/kg/injection, schedule: Q04DX002 (ip), vehicle: saline with Tween-80) 100 % of control; (dose: 4.32 mg/kg/injection, schedule: Q04DX002 (ip), vehicle: saline with Tween-80) 101 % of control; (dose: 7.2 mg/kg/injection, schedule: Q04DX002 (ip), vehicle: saline with Tween-80) 100 % of control; (dose: 12.0 mg/kg/injection, schedule: Q04DX002 (ip), vehicle: saline with Tween-80) 100 % of control; (dose: 20.0 mg/kg/injection, schedule: Q04DX002 (ip), vehicle: saline with Tween-80) 106 % of control.

Consider `CC[C@@]1(O)C[C@H](OC2CC(N(C)C)C(OC3CC(O)C(OC4CCC(=O)C(C)O4)C(C)O3)C(C)O2)c2c(cc3c(c2O)C(=O)c2c(O)ccc(O)c2C3=O)[C@H]1C(=O)OC` (stereo partly drawn), for which the T/C by setting is: (dose: 1.56 mg/kg/injection, schedule: Q04DX003 (ip), vehicle: saline) 116 % of control; under setting [3], 162 % of control; (dose: 7.2 mg/kg/injection, schedule: Q04DX003 (ip), vehicle: saline) 189 % of control and 190 % of control and 220 % of control.

For the compound `CC(CN1CC(=O)NC(=O)C1)N1CC(=O)NC(=O)C1` (stereo not drawn), the T/C is, setting by setting: under setting [1], 101 % of control; under setting [2], 104 % of control; (dose: 180.0 mg/kg/injection, schedule: Q04DX003 (ip), vehicle: saline) 107 % of control; (dose: 500.0 mg/kg/injection, schedule: Q04DX003 (ip), vehicle: saline) 123 % of control.
